Assay results: article PMC4364393 (Journal of medicinal chemistry, 2015)
≈ marks a conversion by molar mass, not a printed value. Where two headings read alike, the source gives them in different places.

Columns and labels:
[1] = test system: E. faecalis (Van S) ATCC 29212; test: MIC, E. faecalis; type: cell-based; conditions: Enterococcus faecalis, ATCC29212, read-out: MIC, E. faecalis (Van S) ATCC 29212
[2] = test system: E. faecalis (Van B) ATCC 51299; test: MIC, E. faecalis; type: cell-based, Enterococcus faecalis
[3] = test system: E. faecalis (Van A) MMX 486; test: MIC, E. faecalis; type: cell-based; conditions: Enterococcus faecalis, read-out: MIC, E. faecalis (Van A) MMX 486
[4] = test system: Van A phenotype VRE strain; conditions: cited from earlier work

Compound: CC(=O)NC[C@H]1CN(c2ccc(N3CCOCC3)c(F)c2)C(=O)O1 [Linezolid, linezolid]
- MIC [1]: 2 mg/L (≈ 5.93 µM)
- MIC ([2]; Enterococcus faecalis, ATCC51299, read-out: MIC, E. faecalis (Van B) ATCC 51299): 2 mg/L (≈ 5.93 µM)
- MIC [3]: 2 mg/L (≈ 5.93 µM)

Compound: CN[C@H](CC(C)C)C(=O)N[C@H]1C(=O)N[C@@H](CC(N)=O)C(=O)N[C@H]2C(=O)N[C@H]3C(=O)N[C@H](C(=O)N[C@H](C(=O)O)c4cc(O)cc(O)c4-c4cc3ccc4O)[C@H](O)c3ccc(c(Cl)c3)Oc3cc2cc(c3O[C@@H]2O[C@H](CO)[C@@H](O)[C@H](O)[C@H]2O[C@H]2C[C@](C)(N)[C@H](O)[C@H](C)O2)Oc2ccc(cc2Cl)[C@H]1O [Vancomycin, vancomycin]
- MIC against Van A phenotype VRE strain ([4]; based on a literature report): 512 mg/L (≈ 353 µM)

Compound: G4-decanoyl vancomycin derivative [Compound 9b]
- times more active against a VRE strain (Van B phenotype) ([2]; fold improvement of MIC, compared with vancomycin): 64 times

Compound: teicoplanin A2-2
- MIC against Van A phenotype VRE strain [4]: 128 mg/L
